# Data from patent publication US11000033B2, “Ketone or oxime compound, and herbicide” (NISSAN CHEMICAL CORPORATION, priority 2014, dated 2021).
# How the values were obtained:
# Format in all cases: in vivo
# Setaria viridis = experiment: Test Example 4: herbicidal effect by soil treatment (symbol G); details: application herbicide amount 320 g/ha
# Procedure, shortened: (§1)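 Seeds were sown in sterilized diluvial soil, covered with about 1.5 cm of soil, and the soil surface was sprayed with a water-diluted emulsion of the compound at a predetermined rate. Plants grew in a greenhouse at 25° C. to 30° C.; effects were scored visually 3 weeks after application.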
# Chenopodium album = experiment: Test Example 5: herbicidal effect by foliage application, plastic box (symbol O); details: 320 g/ha, 3 weeks after application
# Procedure, shortened: (§2)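 Visual herbicidal score, taken three weeks post-application, of seedlings sprayed on the foliage with water-diluted emulsion at a predetermined amount; plants were 14 days old, greenhouse-raised at 25° C. to 30° C.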
# Amaranthus retroflexus = experiment: Test Example 4: herbicidal effect by soil treatment (symbol N); details: application herbicide amount 320 g/ha
# Procedure, shortened: as §1
# [1] = tested on: Echinochloa crus-galli var. crus-galli; experiment: Test Example 5: herbicidal effect by foliage application, plastic box (symbol H); details: 320 g/ha, 3 weeks after application
# Procedure, shortened: as §2
# soybean = experiment: Test Example 4: effect on crop by soil treatment (symbol d); details: application herbicide amount 320 g/ha
# Procedure, shortened: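 Steps: fill box with sterilized diluvial soil; sow seed spot-like; cover with ~1.5 cm soil; grow in greenhouse (25° C. to 30° C.).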
# Avena fatua [2] = experiment: Test Example 4: herbicidal effect by soil treatment (symbol I); details: application herbicide amount 320 g/ha
# Procedure, shortened: as §1
# rapeseed = experiment: Test Example 5: effect on crop by foliage application, plastic box (symbol g); details: 320 g/ha, 3 weeks after application
# Procedure, shortened: (§3)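 Plants were raised from seed in a greenhouse (25° C. to 30° C.) after sowing in a plastic box of sterilized diluvial soil.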
# Avena fatua [3] = experiment: Test Example 5: herbicidal effect by foliage application, plastic box (symbol I); details: 320 g/ha, 3 weeks after application
# Procedure, shortened: as §2
# Scirpus juncoides = experiment: Test Example 1: herbicidal activity, application before weed generation in submerged conditions (symbol B); details: application herbicide amount 320 g/ha
# Procedure, shortened: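 Compound emulsion was diluted to a set herbicide amount and applied to the water surface on the sowing day, into submerged (4 cm) alluvial-soil pots sown with mixed weed seeds and transplanted 2.5-leaf rice. Pots were held in a 25–30 °C greenhouse, and weeds were scored 0–5 by herbicidal ratio after 3 weeks.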
# Stellaria media = experiment: Test Example 5: herbicidal effect by foliage application, plastic box (symbol P); details: 320 g/ha, 3 weeks after application
# Procedure, shortened: as §2
# Leptochloa chinensis = experiment: Test Example 3: herbicidal effect by foliage application, Wagner pot (symbol D); details: application herbicide amount 320 g/ha
# Procedure, shortened: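 The compound, formulated as an emulsion and diluted with water to a predetermined rate, is applied uniformly to leaves of two-week-old seedlings growing in submerged alluvial soil at 25–30 °C. Rice is included. Each plant is assessed 3 weeks later using defined criteria.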
# Veronica persica = experiment: Test Example 5: herbicidal effect by foliage application, plastic box (symbol R); details: 320 g/ha, 3 weeks after application
# Procedure, shortened: as §2
# Galium spurium = experiment: Test Example 5: herbicidal effect by foliage application, plastic box (symbol Q); details: 320 g/ha, 3 weeks after application
# Procedure, shortened: as §2
# beet = experiment: Test Example 5: effect on crop by foliage application, plastic box (symbol f); details: 320 g/ha, 3 weeks after application
# Procedure, shortened: as §3
# Apera spica-venti [4] = experiment: Test Example 5: herbicidal effect by foliage application, plastic box (symbol L); details: 320 g/ha, 3 weeks after application
# Procedure, shortened: as §2
# Apera spica-venti [5] = experiment: Test Example 4: herbicidal effect by soil treatment (symbol L); details: application herbicide amount 320 g/ha
# Procedure, shortened: as §1
# Digitaria ciliaris = experiment: Test Example 5: herbicidal effect by foliage application, plastic box (symbol F); details: 320 g/ha, 3 weeks after application
# Procedure, shortened: as §2
# Abutilon theophrasti = experiment: Test Example 5: herbicidal effect by foliage application, plastic box (symbol M); details: 320 g/ha, 3 weeks after application
# Procedure, shortened: as §2
Compound,"G: Setaria viridis, herbicidal effect grade (Setaria viridis)","N: Amaranthus retroflexus, herbicidal effect grade (Amaranthus retroflexus)","d: soybean, effect on crop grade (soybean)","I: Avena fatua, herbicidal effect grade (Avena fatua [2])","Herbicidal effect grade, B: Scirpus juncoides (Scirpus juncoides)","herbicidal effect on D (Leptochloa chinensis), grade 0-5 (Leptochloa chinensis)","L: Apera spica-venti, herbicidal effect grade (Apera spica-venti [5])","O: Chenopodium album, herbicidal effect grade (Chenopodium album)","H: Echinochloa crus-galli var. crus-galli, herbicidal effect grade [1]","g: rapeseed, effect on crop grade (rapeseed)","I: Avena fatua, herbicidal effect grade (Avena fatua [3])","P: Stellaria media, herbicidal effect grade (Stellaria media)","R: Veronica persica, herbicidal effect grade (Veronica persica)","Q: Galium spurium, herbicidal effect grade (Galium spurium)","M: Abutilon theophrasti, herbicidal effect grade (Abutilon theophrasti)","f: beet, effect on crop grade (beet)","L: Apera spica-venti, herbicidal effect grade (Apera spica-venti [4])","F: Digitaria ciliaris, herbicidal effect grade (Digitaria ciliaris)",also measured
CON=C(C)CC1CC(O)=C(c2c(C)cc(-c3ccc(F)cc3)cc2C)C1=O (mixture of isomers) [6-058],5 (Herbicidal ratio of 90% or more (almost completely withered)),5 (Herbicidal ratio of 90% or more (almost completely withered)),0 (Herbicidal ratio of 5% or lower (almost no effect)),5 (Herbicidal ratio of 90% or more (almost completely withered)),5 (Herbicidal ratio of 90% or more (almost completely withered)),5 (Herbicidal ratio of 90% or more (almost completely withered)),5 (Herbicidal ratio of 90% or more (almost completely withered)),–,–,–,–,–,–,–,–,–,–,–,"O: Chenopodium album, herbicidal effect (criteria of Test Example 1) (Chenopodium album): 5 (Herbicidal ratio of 90% or more (almost completely withered)); H: Echinochloa crus-galli var. crus-galli, herbicidal effect (criteria of Test Example 1) [1]: 5 (Herbicidal ratio of 90% or more (almost completely withered)); g: rapeseed, effect on crop (criteria of Test Example 1) (rapeseed): 5 (Herbicidal ratio of 90% or more (almost completely withered)); I: Avena fatua, herbicidal effect (criteria of Test Example 1) (Avena fatua [3]): 5 (Herbicidal ratio of 90% or more (almost completely withered)); P: Stellaria media, herbicidal effect (criteria of Test Example 1) (Stellaria media): 5 (Herbicidal ratio of 90% or more (almost completely withered)); R: Veronica persica, herbicidal effect (criteria of Test Example 1) (Veronica persica): 5 (Herbicidal ratio of 90% or more (almost completely withered)); Q: Galium spurium, herbicidal effect (criteria of Test Example 1) (Galium spurium): 5 (Herbicidal ratio of 90% or more (almost completely withered)); f: beet, effect on crop (criteria of Test Example 1) (beet): 5 (Herbicidal ratio of 90% or more (almost completely withered)); L: Apera spica-venti, herbicidal effect (criteria of Test Example 1) (Apera spica-venti [4]): 5 (Herbicidal ratio of 90% or more (almost completely withered)); F: Digitaria ciliaris, herbicidal effect (criteria of Test Example 1) (Digitaria ciliaris): 5 (Herbicidal ratio of 90% or more (almost completely withered))"
CON=C(C)C(=NOC)C1CC(O)=C(c2c(C)cc(C)cc2C)C1=O (stereo not shown) [8-003],–,–,–,–,0 (Herbicidal ratio of 5% or lower (almost no effect)),–,–,0 (Herbicidal ratio of 5% or lower (almost no effect)),0 (Herbicidal ratio of 5% or lower (almost no effect)),0 (Herbicidal ratio of 5% or lower (almost no effect)),0 (Herbicidal ratio of 5% or lower (almost no effect)),0 (Herbicidal ratio of 5% or lower (almost no effect)),0 (Herbicidal ratio of 5% or lower (almost no effect)),0 (Herbicidal ratio of 5% or lower (almost no effect)),0 (Herbicidal ratio of 5% or lower (almost no effect)),0 (Herbicidal ratio of 5% or lower (almost no effect)),0 (Herbicidal ratio of 5% or lower (almost no effect)),0 (Herbicidal ratio of 5% or lower (almost no effect)),"Herbicidal effect grade, G: Setaria viridis (Setaria viridis): 0 (Herbicidal ratio of 5% or lower (almost no effect)); Herbicidal effect grade, N: Amaranthus retroflexus (Amaranthus retroflexus): 0 (Herbicidal ratio of 5% or lower (almost no effect)); Effect on crop grade, d: soybean (soybean): 0 (Herbicidal ratio of 5% or lower (almost no effect)); Herbicidal effect grade, I: Avena fatua (Avena fatua [2]): 0 (Herbicidal ratio of 5% or lower (almost no effect)); D (Leptochloa chinensis) herbicidal effect grade (Leptochloa chinensis; Table 24): 0 (Herbicidal ratio of 5% or lower (almost no effect)); Herbicidal effect grade, L: Apera spica-venti (Apera spica-venti [5]): 0 (Herbicidal ratio of 5% or lower (almost no effect))"
CON=C(C)CC1CC(O)=C(c2c(C)cc(C3CC3)cc2C)C1=O (stereo not shown) [6-050],4 (Herbicidal ratio of 70% or higher and lower than 90%),0 (Herbicidal ratio of 5% or lower (almost no effect)),0 (Herbicidal ratio of 5% or lower (almost no effect)),2 (Herbicidal ratio of 20% or higher and lower than 40%),1 (Herbicidal ratio of 5% or higher and lower than 20%),5 (Herbicidal ratio of 90% or more (almost completely withered)),0 (Herbicidal ratio of 5% or lower (almost no effect)),3 (Herbicidal ratio of 40% or higher and lower than 70%),4 (Herbicidal ratio of 70% or higher and lower than 90%),5 (Herbicidal ratio of 90% or more (almost completely withered)),2 (Herbicidal ratio of 20% or higher and lower than 40%),3 (Herbicidal ratio of 40% or higher and lower than 70%),2 (Herbicidal ratio of 20% or higher and lower than 40%),3 (Herbicidal ratio of 40% or higher and lower than 70%),0 (Herbicidal ratio of 5% or lower (almost no effect)),2 (Herbicidal ratio of 20% or higher and lower than 40%),4 (Herbicidal ratio of 70% or higher and lower than 90%),4 (Herbicidal ratio of 70% or higher and lower than 90%),–
C#CCON=C(C)CC1CC(O)=C(c2c(C)cc(C)cc2C)C1=O (stereo not shown) [1-019],–,–,–,–,5 (Herbicidal ratio of 90% or more (almost completely withered)),5 (Herbicidal ratio of 90% or more (almost completely withered)),–,–,5 (Herbicidal ratio of 90% or more (almost completely withered)),4 (Herbicidal ratio of 70% or higher and lower than 90%),5 (Herbicidal ratio of 90% or more (almost completely withered)),4 (Herbicidal ratio of 70% or higher and lower than 90%),4 (Herbicidal ratio of 70% or higher and lower than 90%),4 (Herbicidal ratio of 70% or higher and lower than 90%),4 (Herbicidal ratio of 70% or higher and lower than 90%),4 (Herbicidal ratio of 70% or higher and lower than 90%),5 (Herbicidal ratio of 90% or more (almost completely withered)),5 (Herbicidal ratio of 90% or more (almost completely withered)),G (Setaria viridis) herbicidal effect grade (Setaria viridis): 3 (Herbicidal ratio of 40% or higher and lower than 70%); N (Amaranthus retroflexus) herbicidal effect grade (Amaranthus retroflexus): 3 (Herbicidal ratio of 40% or higher and lower than 70%); d (soybean) effect on crop grade (soybean): 3 (Herbicidal ratio of 40% or higher and lower than 70%); I (Avena fatua) herbicidal effect grade (Avena fatua [2]): 5 (Herbicidal ratio of 90% or more (almost completely withered)); L (Apera spica-venti) herbicidal effect grade (Apera spica-venti [5]): 5 (Herbicidal ratio of 90% or more (almost completely withered))
